Assay results from patent US10669261B2, “Heteroarylhydroxypyrimidinones as agonists of the APJ receptor” (BRISTOL-MYERS SQUIBB COMPANY, priority 2015, dated 2020).

Molecular target: T1, human APJ receptor (Homo sapiens, UniProt P35414)
T1 construct: expressed in transfected cells
T1 sequence (P35414 1-380): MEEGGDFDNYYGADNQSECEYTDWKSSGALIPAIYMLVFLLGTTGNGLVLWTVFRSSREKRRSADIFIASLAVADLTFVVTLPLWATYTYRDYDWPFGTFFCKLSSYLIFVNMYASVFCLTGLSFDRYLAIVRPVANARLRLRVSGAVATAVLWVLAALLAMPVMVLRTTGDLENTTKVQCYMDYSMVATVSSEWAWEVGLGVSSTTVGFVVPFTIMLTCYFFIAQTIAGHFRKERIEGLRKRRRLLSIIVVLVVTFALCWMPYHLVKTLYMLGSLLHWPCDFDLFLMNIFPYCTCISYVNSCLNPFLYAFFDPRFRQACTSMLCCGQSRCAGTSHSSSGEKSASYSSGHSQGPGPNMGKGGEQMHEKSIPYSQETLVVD
Assay: Intracellular cAMP accumulation assay (APJ hcAMP, HTRF)
Assay type: cell-based
Details: HEK293 cells stably expressing human APJ receptor; inhibition of forskolin-mediated cAMP production; stated at end of example; read-out: Human APJ cAMP Potency Range
How it was run: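 Inhibition of forskolin (2 μM)-driven cAMP, with […], measured by HTRF after 30 min room-temperature compound exposure of stably transfected HEK293 cells. cAMP read from a standard curve; variable-slope fit gives EC50, and maximal inhibition is normalised to (Pyr1)apelin-13 as 100%.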

| EC50 | SMILES |
| --- | --- |
| 0.01 to 10 nM | [2H]C([2H])([2H])Oc1cccc(OC([2H])([2H])[2H])c1-n1c(CCCC)nc(=O)c(-c2nnc(Cc3noc4ccccc34)o2)c1O [Example 48, 5-(5-(Benzo[d]isoxazol-3-ylmethyl)-1,3,4-oxadiazol-2-yl)-2-butyl-1-(2,6-di[^2H3]methoxyphenyl)-6-hydroxypyrimidin-4(1H)-one] |
| 0.01 to 10 nM | CCCCc1nc(=O)c(-c2nnc(Cc3noc4ccccc34)o2)c(O)n1-c1c(C2CC2)cccc1C1CC1 [Example 27, 5-(5-(Benzo[d]isoxazol-3-ylmethyl)-1,3,4-oxadiazol-2-yl)-2-butyl-1-(2,6-dicyclopropylphenyl)-6-hydroxypyrimidin-4(1H)-one] |

Same assay, conditions: Table 1; HEK293 cells stably expressing human APJ receptor; read-out: hAPJ cAMP EC50 Potency range

| EC50 | SMILES |
| --- | --- |
| 0.01 to 10 nM | CCCCc1nc(=O)c(-c2nnc(Cc3noc4ccccc34)o2)c(O)n1-c1c(OC)ncnc1OC [Example 18, 5-[5-(1,2-benzoxazol-3-ylmethyl)-1,3,4-oxadiazol-2-yl]-2-butyl-1-(4,6-dimethoxypyrimidin-5-yl)-6-hydroxy-1,4-dihydropyrimidin-4-one] |
| 0.01 to 10 nM | COc1cccc(OC)c1-n1c(C2CCCC2)nc(=O)c(-c2nnc(Cc3ccc(Cl)cn3)o2)c1O [Example 66, 5-{5-[(5-chloropyridin-2-yl)methyl]-1,3,4-oxadiazol-2-yl}-2-cyclopentyl-1-(2,6-dimethoxyphenyl)-6-hydroxy-1,4-dihydropyrimidin-4-one] |
| 0.01 to 10 nM | COc1cccc(OC)c1-n1c(CCC2CC2)nc(=O)c(-c2nnc(Cc3csc(C)n3)o2)c1O [Example 44, 2-(2-cyclopropylethyl)-1-(2,6-dimethoxyphenyl)-6-hydroxy-5-{5-[(2-methyl-1,3-thiazol-4-yl)methyl]-1,3,4-oxadiazol-2-yl}-1,4-dihydropyrimidin-4-one] |
| 0.01 to 10 nM | COc1cccc(OC)c1-n1c(CCC2CC2)nc(=O)c(-c2nnc(Cn3ccccc3=O)o2)c1O [Example 46, 2-(2-cyclopropylethyl)-1-(2,6-dimethoxyphenyl)-6-hydroxy-5-{5-[(2-oxo-1,2-dihydropyridin-1-yl)methyl]-1,3,4-oxadiazol-2-yl}-1,4-dihydropyrimidin-4-one] |
| 0.01 to 10 nM | COc1cccc(OC)c1-n1c(C2CCCC2)nc(=O)c(-c2nnc(CN3CCCC3=O)o2)c1O [Example 64, 2-cyclopentyl-1-(2,6-dimethoxyphenyl)-6-hydroxy-5-{5-[(2-oxopyrrolidin-1-yl)methyl]-1,3,4-oxadiazol-2-yl}-1,4-dihydropyrimidin-4-one] |
| 0.01 to 10 nM | [2H]C([2H])([2H])Oc1cccc(OC([2H])([2H])[2H])c1-n1c(COCC)nc(=O)c(-c2nnc(Cc3noc4ccccc34)o2)c1O [Example 50, 5-[5-(1,2-benzoxazol-3-ylmethyl)-1,3,4-oxadiazol-2-yl]-1-[2,6-bis(^2H3)methoxyphenyl]-2-(ethoxymethyl)-6-hydroxy-1,4-dihydropyrimidin-4-one] |
| 0.01 to 10 nM | C=CCCc1nc(=O)c(-c2nnc(Cc3noc4ccccc34)o2)c(O)n1-c1c(OC)cccc1OC [Example 3, 5-[5-(1,2-benzoxazol-3-ylmethyl)-1,3,4-oxadiazol-2-yl]-2-(but-3-en-1-yl)-1-(2,6-dimethoxyphenyl)-6-hydroxy-1,4-dihydropyrimidin-4-one] |
| 0.01 to 10 nM | COc1cccc(OC)c1-n1c(C2CCCC2)nc(=O)c(-c2nnc(Cc3ncc(Cl)cc3F)o2)c1O [Example 69, 5-{5-[(5-chloro-3-fluoropyridin-2-yl)methyl]-1,3,4-oxadiazol-2-yl}-2 cyclopentyl-1-(2,6-dimethoxyphenyl)-6-hydroxy-1,4-dihydropyrimidin-4-one] |
| 0.01 to 10 nM | COc1cccc(OC)c1-n1c(COC(C)C)nc(=O)c(-c2nnc(Cc3noc4ccccc34)o2)c1O [Example 34, 5-[5-(1,2-benzoxazol-3-ylmethyl)-1,3,4-oxadiazol-2-yl]-1-(2,6-dimethoxyphenyl)-6-hydroxy-2-[(propan-2-yloxy)methyl]-1,4-dihydropyrimidin-4-one] |
| 0.01 to 10 nM | CCCCc1nc(=O)c(-c2nnc(Cc3noc4ccccc34)o2)c(O)n1-c1c(C)cccc1OC [Example 13, 5-[5-(1,2-benzoxazol-3-ylmethyl)-1,3,4-oxadiazol-2-yl]-2-butyl-6-hydroxy-1-(2-methoxy-6-methylphenyl)-1,4-dihydropyrimidin-4-one] |

Same assay, conditions: Table 2; HEK293 cells stably expressing human APJ receptor; read-out: hAPJ cAMP EC50 Potency range

| EC50 | SMILES |
| --- | --- |
| 0.01 to 10 nM | CCCCc1nc(O)c(-c2nnc(Cc3ccc(Cl)cn3)o2)c(=O)n1C(C)c1ccncc1 (stereo not drawn) [Example 111, 2-butyl-5-{5-[(5-chloropyridin-2-yl)methyl]-1,3,4-oxadiazol-2-yl}-6-hydroxy-3-[1-(pyridin-4-yl)ethyl]-3,4-dihydropyrimidin-4-one] |
| 10 to 100 nM | CCCCc1nc(O)c(-c2nnc(Cc3csc(C)n3)o2)c(=O)n1[C@@H](C)c1cccc(C#N)c1 [Example 104, 3-[(1S)-1-(2-butyl-4-hydroxy-5-{5-[(2-methyl-1,3-thiazol-4-yl)methyl]-1,3,4-oxadiazol-2-yl}-6-oxo-1,6-dihydropyrimidin-1-yl)ethyl]benzonitrile] |
| 0.01 to 10 nM | CCCCc1nc(O)c(-c2nnc(Cc3csc(C)n3)o2)c(=O)n1[C@@H](C)c1ccccc1 [Example 76, 2-butyl-6-hydroxy-5-{5-[(2-methyl-1,3-thiazol-4-yl)methyl]-1,3,4-oxadiazol-2-yl}-3-[(1S)-1-phenylethyl]-3,4-dihydropyrimidin-4-one] |
